According to ChEMBL document CHEMBL1201862, “PubChem BioAssay data set” (2004):
Active and inactive are the calls of the source.

Legend:
[1] = NIH-3T3 fibroblast cytotoxicity, dose response, cytotoxicity control, cell-based, fluorescence, Alamar Blue, secondary assay (AID 2327); format: functional;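 further: NIH-3T3 mouse fibroblasts cultured with fluconazole at 8 µg/mL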
[2] = C. albicans growth with fluconazole, confirmation, fluorescence, retest (AID 2467); format: functional, cell-based
[3] = Luminescence Cell-Based Dose Retest to Confirm Inhibitors of Cancer Stem Cells. [Related pubchem assays (depositor defined):AID2717, AID2721]; format: functional, Homo sapiens; conditions: Homo sapiens
[4] = human group III sPLA2 inhibitors, dose response, biochemical, QFRET, IC50 (AID 743457);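 further: green fluorescence rise as the enzyme cleaves BODIPY PC-A2 in liposomes; potency for inhibition of the enzyme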
[5] = target: Potassium channel subfamily K member 9 (Homo sapiens, UniProt Q9NPC2); assay: TASK3 (KCNK9) channel inhibitors, thallium flux, SAR follow-up, selectivity assay for TASK1 inhibitor project, cell-based, FluxOR thallium flux, concentration-response (AID 652211); format: functional;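 further: potency is for inhibitors of the channel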
Chain of Potassium channel subfamily K member 9 (Q9NPC2 whole entry, the tested form may be a part): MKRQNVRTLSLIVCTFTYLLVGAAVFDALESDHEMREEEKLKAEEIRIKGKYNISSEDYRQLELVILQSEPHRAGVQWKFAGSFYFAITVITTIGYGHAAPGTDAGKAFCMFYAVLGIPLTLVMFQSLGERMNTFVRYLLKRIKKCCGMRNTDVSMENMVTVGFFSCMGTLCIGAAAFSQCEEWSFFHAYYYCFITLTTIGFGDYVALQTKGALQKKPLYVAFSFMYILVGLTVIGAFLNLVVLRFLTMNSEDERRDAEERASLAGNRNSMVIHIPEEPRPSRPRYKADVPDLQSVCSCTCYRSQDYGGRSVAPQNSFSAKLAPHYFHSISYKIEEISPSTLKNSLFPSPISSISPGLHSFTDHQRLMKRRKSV

[6] = target: Potassium channel subfamily K member 3 (Rattus norvegicus, UniProt O54912); assay: SAR analysis for the identification of selective inhibitors of the two-pore domain potassium channel TASK1(KCNK3):Automated Electrophysiology.; format: functional
Chain of Potassium channel subfamily K member 3 (Rattus norvegicus, UniProt O54912) (O54912 whole entry, the tested form may be a part): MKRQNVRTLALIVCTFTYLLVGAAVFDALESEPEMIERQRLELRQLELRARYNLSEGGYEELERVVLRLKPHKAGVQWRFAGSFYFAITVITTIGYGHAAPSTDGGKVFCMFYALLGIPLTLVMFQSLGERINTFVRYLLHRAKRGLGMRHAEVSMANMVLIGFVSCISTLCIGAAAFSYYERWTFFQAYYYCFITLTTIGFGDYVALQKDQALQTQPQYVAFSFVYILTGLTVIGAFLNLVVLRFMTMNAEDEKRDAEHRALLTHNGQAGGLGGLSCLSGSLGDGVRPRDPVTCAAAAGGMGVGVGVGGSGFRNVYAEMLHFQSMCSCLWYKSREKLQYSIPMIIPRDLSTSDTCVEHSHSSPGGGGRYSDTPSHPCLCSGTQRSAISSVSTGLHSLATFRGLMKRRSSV

[7] = target: Potassium channel subfamily K member 3 (Homo sapiens, UniProt O14649); assay: TASK1 (KCNK3) potassium channel inhibitors, SAR follow-up, CHO cells, FluxOR thallium flux (AID 652212); format: functional
Chain of Potassium channel subfamily K member 3 (Homo sapiens, UniProt O14649) (O14649 whole entry, the tested form may be a part): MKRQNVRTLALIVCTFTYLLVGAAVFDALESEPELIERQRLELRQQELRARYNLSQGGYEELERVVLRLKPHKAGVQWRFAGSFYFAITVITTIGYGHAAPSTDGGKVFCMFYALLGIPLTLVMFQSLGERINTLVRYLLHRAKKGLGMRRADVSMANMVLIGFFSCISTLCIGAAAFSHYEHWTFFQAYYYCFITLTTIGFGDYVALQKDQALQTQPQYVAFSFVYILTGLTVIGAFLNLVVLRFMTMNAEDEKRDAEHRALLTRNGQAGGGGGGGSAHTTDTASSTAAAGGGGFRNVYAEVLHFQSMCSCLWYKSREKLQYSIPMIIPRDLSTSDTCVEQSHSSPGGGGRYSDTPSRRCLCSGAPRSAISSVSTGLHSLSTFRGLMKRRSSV

[8] = target: Disintegrin and metalloproteinase domain-containing protein 17 (Homo sapiens, UniProt P78536); assay: exosite inhibitors of ADAM17, dose response, biochemical (AID 743260)
Chain of Disintegrin and metalloproteinase domain-containing protein 17 (P78536 whole entry, the tested form may be a part): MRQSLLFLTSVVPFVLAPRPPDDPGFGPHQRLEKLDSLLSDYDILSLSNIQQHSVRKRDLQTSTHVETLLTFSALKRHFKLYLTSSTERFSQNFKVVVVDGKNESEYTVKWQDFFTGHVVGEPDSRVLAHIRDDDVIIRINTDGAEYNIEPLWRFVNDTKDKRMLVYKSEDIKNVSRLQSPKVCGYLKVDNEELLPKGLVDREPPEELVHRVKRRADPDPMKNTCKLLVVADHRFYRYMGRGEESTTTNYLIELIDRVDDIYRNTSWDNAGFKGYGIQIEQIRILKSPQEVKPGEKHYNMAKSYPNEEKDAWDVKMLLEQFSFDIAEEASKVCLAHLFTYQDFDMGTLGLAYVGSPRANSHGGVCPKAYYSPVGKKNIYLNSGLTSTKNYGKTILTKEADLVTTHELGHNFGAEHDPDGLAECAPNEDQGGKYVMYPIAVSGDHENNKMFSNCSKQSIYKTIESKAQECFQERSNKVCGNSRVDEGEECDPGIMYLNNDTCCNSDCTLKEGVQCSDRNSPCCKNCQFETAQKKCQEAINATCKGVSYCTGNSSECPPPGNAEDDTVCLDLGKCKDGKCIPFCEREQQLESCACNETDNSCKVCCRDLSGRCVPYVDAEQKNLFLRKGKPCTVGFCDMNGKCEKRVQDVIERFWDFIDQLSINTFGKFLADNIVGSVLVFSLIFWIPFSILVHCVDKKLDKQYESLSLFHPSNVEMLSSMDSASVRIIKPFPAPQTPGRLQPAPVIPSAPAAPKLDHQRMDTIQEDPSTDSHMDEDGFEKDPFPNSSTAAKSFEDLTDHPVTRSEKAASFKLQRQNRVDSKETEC

[9] = ADAM10 protease inhibitors, dose response, selectivity assay for ADAM17 exosite inhibitor project, biochemical, FRET peptide substrate, recombinant human ADAM10 (AID 743259);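 further: ADAM10 enzyme cleaving a FRET peptide substrate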
[10] = target: T1, Mannose-6-phosphate isomerase (Homo sapiens, UniProt P34949); assay: inhibitors of human PMI, primary screen, biochemical, fluorescence intensity, coupled assay (AID 1209)
T1 sequence (P34949 whole entry): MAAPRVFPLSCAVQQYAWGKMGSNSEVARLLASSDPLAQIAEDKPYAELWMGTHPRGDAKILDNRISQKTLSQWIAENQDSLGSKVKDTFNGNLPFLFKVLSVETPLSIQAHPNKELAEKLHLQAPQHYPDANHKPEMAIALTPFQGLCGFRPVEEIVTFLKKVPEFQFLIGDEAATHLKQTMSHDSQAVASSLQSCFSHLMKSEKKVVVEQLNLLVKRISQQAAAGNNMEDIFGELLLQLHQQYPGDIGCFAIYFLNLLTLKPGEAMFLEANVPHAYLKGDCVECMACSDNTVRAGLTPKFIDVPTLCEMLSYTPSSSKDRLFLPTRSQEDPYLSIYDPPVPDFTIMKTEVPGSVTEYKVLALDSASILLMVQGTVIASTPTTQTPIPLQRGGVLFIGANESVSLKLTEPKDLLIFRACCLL

T-cell = assay: inhibitors of CD8+ T cell–vesicle binding, dose response, mouse 2C CD8+ T cells, flow cytometry (AID 485284); format: functional
Kallikrein-7 = Kallikrein-7 (Homo sapiens, UniProt P49862); assay: Fluorescence Intensity-based biochemical primary high throughput dose response assay to identify activators of kallikrein-7 (K7) zymogen.
Chain of Kallikrein-7 (P49862 whole entry): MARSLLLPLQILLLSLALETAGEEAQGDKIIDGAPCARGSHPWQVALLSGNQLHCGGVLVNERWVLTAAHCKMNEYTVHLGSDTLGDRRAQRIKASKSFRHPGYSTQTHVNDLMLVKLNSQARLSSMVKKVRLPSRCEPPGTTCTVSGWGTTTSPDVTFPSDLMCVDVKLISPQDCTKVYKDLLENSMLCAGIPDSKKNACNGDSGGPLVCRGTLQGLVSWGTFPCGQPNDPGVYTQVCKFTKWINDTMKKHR

[11] = EDANS-DABCYL fluorescence interference, concentration series, dose response, artefact control for kallikrein-7 zymogen activator project, biochemical, fluorescence intensity, triplicate (AID 720493)
[12] = inhibitors of HIV Env-driven cell fusion, dose response, cherry-pick (AID 652057); format: functional, cell-based
Paired box protein Pax-8 = Paired box protein Pax-8 (Homo sapiens, UniProt Q06710); assay: inhibitors of PAX8-driven TPO luciferase reporter, dose response, RMG-I cells, cherry-pick (AID 687027); format: functional, cell-based;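 further: luciferase reporter driven by Pax8 target thyroperoxidase promoter measured by SteadyGlo luminescence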
Chain of Paired box protein Pax-8 (Q06710 whole entry): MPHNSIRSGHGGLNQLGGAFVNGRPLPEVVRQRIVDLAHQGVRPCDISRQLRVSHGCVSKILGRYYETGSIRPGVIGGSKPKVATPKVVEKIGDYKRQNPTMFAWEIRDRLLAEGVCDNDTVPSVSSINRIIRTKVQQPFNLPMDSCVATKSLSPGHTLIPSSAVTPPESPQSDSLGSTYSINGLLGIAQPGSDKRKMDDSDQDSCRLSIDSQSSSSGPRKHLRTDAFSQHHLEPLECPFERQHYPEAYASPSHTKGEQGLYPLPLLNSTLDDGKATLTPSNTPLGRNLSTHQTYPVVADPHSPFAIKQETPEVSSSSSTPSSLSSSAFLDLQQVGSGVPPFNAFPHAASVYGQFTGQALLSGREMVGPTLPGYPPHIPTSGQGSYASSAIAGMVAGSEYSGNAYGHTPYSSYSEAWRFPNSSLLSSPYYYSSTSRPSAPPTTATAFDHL

[13] = PAX2 cell-based inhibition, dose response, selectivity assay for PAX8 inhibitor project, plate reader, dry powder samples (AID 743048); format: functional;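 further: HEK293 cells carrying a WT1 promoter luciferase reporter driven by expressed Pax2; potency is for inhibition of Pax2 driven reporter signal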
[14] = NIH:OVCAR-3 ovarian cancer cell cytotoxicity, dose response, PAX8 inhibitor project, plate reader, dry powder samples (AID 743044); format: functional, cell-based
[15] = PAX5 activity inhibitors, dose response, selectivity assay for PAX8 inhibitor project, cell-based, plate reader, dry powder samples (AID 743047); format: functional;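 further: HEK293 cells carrying a Pax5 driven CD19 promoter luciferase reporter; potency of inhibitors that lower reporter luminescence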
[16] = cytotoxicity in OVCAR4 cells, dose response, cytotoxicity control for PAX8 inhibitor project, cell-based, plate reader, dry powder, SA11 (AID 743150); format: functional; conditions: OVCAR-4
[17] = cytotoxicity in COV434 cells, dose response, cytotoxicity control for PAX8 inhibitor project, cell-based, plate reader, dry powder, SA7 (AID 743145); format: functional
[18] = cytotoxicity in OV-90 ovarian cancer cells, dose response, PAX8 inhibitor project, cell-based, plate reader, dry powder, SA8 (AID 743149); format: functional
[19] = cytotoxicity in OVCAR8 ovarian cancer cells, dose response, PAX8 project, cell-based, plate reader, dry powder samples (AID 743197); format: functional; conditions: OVCAR-8
[20] = cytotoxicity dependent on PAX8, dose response, cell-based, plate reader, dry powder (AID 743049); format: functional
[21] = Late stage assay provider results from the probe development effort to identify selective inhibitors of heat shock protein 90 (HSP90): Absorbance-based cell proliferation assay in SKBR3 cells.; format: functional; conditions: SK-BR-3
[22] = Late stage assay provider results from the probe development effort to identify selective inhibitors of heat shock protein 90 (HSP90): Absorbance-based cell proliferation assay in MCF7 cells.; format: functional
[23] = HEK293T cell cytotoxicity, dose response, cytotoxicity control, luminescence plate reader, powder samples, set 4 (AID 651863); format: functional, cell-based; conditions: HEK293
[24] = target: Metabotropic glutamate receptor 3 (Rattus norvegicus, UniProt P31422); assay: mGlu3 NAM potency via calcium readout, dose response, mGlu3 NAM project, TREx293 cells, Galpha15, calcium flux (AID 651840); format: functional
Chain of Metabotropic glutamate receptor 3 (P31422 whole entry): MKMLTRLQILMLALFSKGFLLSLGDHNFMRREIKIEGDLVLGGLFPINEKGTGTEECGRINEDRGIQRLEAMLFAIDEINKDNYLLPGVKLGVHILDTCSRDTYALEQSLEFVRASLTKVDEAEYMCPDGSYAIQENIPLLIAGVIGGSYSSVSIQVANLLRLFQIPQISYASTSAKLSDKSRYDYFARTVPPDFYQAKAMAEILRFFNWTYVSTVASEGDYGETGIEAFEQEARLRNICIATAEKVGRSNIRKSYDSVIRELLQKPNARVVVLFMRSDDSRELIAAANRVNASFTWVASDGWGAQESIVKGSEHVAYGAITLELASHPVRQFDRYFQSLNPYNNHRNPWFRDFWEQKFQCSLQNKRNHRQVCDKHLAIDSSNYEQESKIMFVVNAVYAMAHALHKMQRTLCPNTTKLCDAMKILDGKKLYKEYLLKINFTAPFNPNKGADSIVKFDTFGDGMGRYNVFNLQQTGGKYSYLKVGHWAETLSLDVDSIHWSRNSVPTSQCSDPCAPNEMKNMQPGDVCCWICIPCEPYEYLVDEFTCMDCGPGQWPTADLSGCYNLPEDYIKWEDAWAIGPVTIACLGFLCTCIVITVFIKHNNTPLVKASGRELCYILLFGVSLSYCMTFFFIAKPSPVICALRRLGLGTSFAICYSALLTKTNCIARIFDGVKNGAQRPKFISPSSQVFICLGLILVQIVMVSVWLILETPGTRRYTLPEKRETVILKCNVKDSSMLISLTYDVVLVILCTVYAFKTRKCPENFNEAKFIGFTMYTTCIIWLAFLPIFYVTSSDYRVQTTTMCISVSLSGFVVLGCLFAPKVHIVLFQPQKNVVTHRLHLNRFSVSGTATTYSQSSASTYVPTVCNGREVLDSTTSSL

Cc1cc(C)c2nc(NNC(=O)c3cc(-c4cccs4)nc4ccccc34)sc2c1
EC50 [1]: 10.7 µM (active)
EC50 [2]: > 38 µM (not active)
AC50 [3]: 2.13 µM (active)
IC50 [4]: 53.9 µM (inactive)

Cc1cccc(C(=O)Nc2cccc(NC(=O)c3ccccc3)c2)c1
IC50 [5]: 0.36 µM (active)
IC50 [6]: 0.075 µM (active)
IC50 [7]: 0.015 µM (active)

CCOC(=O)c1c(NC(=O)Cn2nc(C(F)F)cc2C(F)F)sc(C)c1C
IC50 [8]: > 69.5 µM (inactive)
IC50 [9]: > 69.5 µM (inactive)

Cc1c2cccn2cc[n+]1C
IC50 [10]: > 50 µM (not active)
EC50 (T-cell): 79.2 µM (inactive)
EC50 (Kallikrein-7): 17.5 µM (inactive)
EC50 [11]: > 7.72 µM (active)

COc1ccccc1C#Cc1ccc2c(c1)O[C@@H](CN(C)Cc1ccncc1)[C@H](C)CN([C@H](C)CO)S2(=O)=O
AC50 [12]: 42.1 µM (active)
AC50 (Paired box protein Pax-8): 2.39 µM (active)
AC50 [13]: 2.28 µM (active)
AC50 [14]: 13.3 µM (active)
AC50 [15]: 9.35 µM (active)
AC50 [16]: 11.5 µM (active)
AC50 [17]: 0.0946 nM (active)
AC50 [18]: 7.34 µM (active)
AC50 [19]: 27.7 µM (active)
AC50 [20]: 4.51 µM (active)

Cc1c(Cl)c(=O)oc2c(C)c(OCc3ccccc3)ccc12
IC50 [21]: > 100 µM (inactive)
IC50 [22]: > 100 µM (inactive)

Cc1ccc(S(=O)(=O)NNc2nc(NCC(N)=O)nc3ccccc23)cc1
AC50 [23]: > 52 µM (inactive)

COc1ccc(C#Cc2ccc(C(=O)N3CCC(=O)C(C)C3)cc2)cc1 (configuration not stated)
IC50 [24]: 8.95 µM
